# Data from patent US20240009160A1, “USE OF (S)-3-AMINO-4-(DIFLUOROMETHYLENYL)CYCLOPENT-1-ENE-1-CARBOXYLIC ACID IN THE TREATMENT OF CANCER” (Ovid Therapeutics, Inc., priority 2022, published 2024).
# Like-named read-outs stand apart in the source and are kept apart here.
# What was measured:
# [1] = Clearance in dog hepatocytes; type: in vitro ADME; settings: read-out: intrinsic clearance (CIint)
# [2] = system: Salmonella typhimurium; type: cell-based
# Description: (§1) A non-GLP safety assessment for changes in retinal function and structure were evaluated in rats. […] In addition, toxicity of (S)-3-amino-4-(difluoromethylenyl)cyclopent-1-ene-1-carboxylic acid was assessed in non-GLP single-dose and repeat dose toxicity studies in rats and dogs. […] (S)-3-amino-4-(difluoromethylenyl)cyclopent-1-ene-1-carboxylic acid was not genotoxic in the Ames assay. The Ames assay is a well-known method that uses several strains of the bacterium Salmonella typhimurium to test whether a given chemical can cause mutations in the DNA of the test organism. No CNS or cardiovascular safety liabilities were identified in an Irwin study in mice. The Irwin observation test is commonly used to evaluate the effects of a new substance on behavior and physiological function. Roux et al., Curr Protoc Pharmacol. 2005 Jan. 1; Chapter 10:Unit 10.
# [3] = Clearance in human hepatocytes; type: in vitro ADME; settings: read-out: intrinsic clearance (CIint)
# [4] = Non-GLP 10-day repeat dose toxicity study in dogs; type: in vivo
# Description: as §1
# [5] = Non-GLP safety assessment of retinal function and structure; type: in vivo, rats
# Description: as §1
# [6] = Genetic toxicity in vitro
# [7] = target: hERG channel (Homo sapiens, UniProt Q12809); assay: hERG channel activity in vitro
# [8] = Pharmacokinetics after oral administration in rat; settings: in vivo
# [9] = Non-GLP 10-day repeat dose toxicity study in rats; type: in vivo; settings: for human dose converted from tolerated rat dose: Reagan-Shaw conversion
# Description: as §1
# [10] = Pharmacokinetics after oral administration in dog; type: in vivo
# [11] = Plasma protein binding, human; type: in vitro ADME; settings: 37° C., one range given for rat, dog and human, read-out: bound to plasma proteins
# Description: (§2) (S)-3-amino-4-(difluoromethylenyl)cyclopent-1-ene-1-carboxylic acid was minimally bound (4 to 20%) to proteins in rat, dog, and human plasma at 37° C.
# [12] = Plasma protein binding, rat; type: in vitro ADME; settings: 37° C., one range given for rat, dog and human, read-out: bound to plasma proteins
# Description: as §2
# [13] = 45-day oral tolerability and electroretinogram study, head-to-head with vigabatrin; type: in vivo, mice
# Description: (§3) In adult mice, an acute no-observed adverse-effect level (NOAEL) of 6 mg/kg by mouth was determined by evaluating behavioral neurotoxicity in naive animals. […] Based on these findings, it is clear that the inhibition of GABA-AT by (S)-3-amino-4-(difluoromethylenyl)cyclopent-1-ene-1-carboxylic acid is not necessarily associated with vigabatrin-like retinal toxicity.
# [14] = Acute behavioral neurotoxicity in naive adult mice; settings: in vivo, oral
# Description: as §3
# [15] = Plasma protein binding, dog; type: in vitro ADME; settings: 37° C., one range given for rat, dog and human, read-out: bound to plasma proteins
# Description: as §2
# [16] = Clearance in rat hepatocytes; type: in vitro ADME; settings: read-out: intrinsic clearance (CIint)
# Chain of hERG channel (Q12809 whole entry): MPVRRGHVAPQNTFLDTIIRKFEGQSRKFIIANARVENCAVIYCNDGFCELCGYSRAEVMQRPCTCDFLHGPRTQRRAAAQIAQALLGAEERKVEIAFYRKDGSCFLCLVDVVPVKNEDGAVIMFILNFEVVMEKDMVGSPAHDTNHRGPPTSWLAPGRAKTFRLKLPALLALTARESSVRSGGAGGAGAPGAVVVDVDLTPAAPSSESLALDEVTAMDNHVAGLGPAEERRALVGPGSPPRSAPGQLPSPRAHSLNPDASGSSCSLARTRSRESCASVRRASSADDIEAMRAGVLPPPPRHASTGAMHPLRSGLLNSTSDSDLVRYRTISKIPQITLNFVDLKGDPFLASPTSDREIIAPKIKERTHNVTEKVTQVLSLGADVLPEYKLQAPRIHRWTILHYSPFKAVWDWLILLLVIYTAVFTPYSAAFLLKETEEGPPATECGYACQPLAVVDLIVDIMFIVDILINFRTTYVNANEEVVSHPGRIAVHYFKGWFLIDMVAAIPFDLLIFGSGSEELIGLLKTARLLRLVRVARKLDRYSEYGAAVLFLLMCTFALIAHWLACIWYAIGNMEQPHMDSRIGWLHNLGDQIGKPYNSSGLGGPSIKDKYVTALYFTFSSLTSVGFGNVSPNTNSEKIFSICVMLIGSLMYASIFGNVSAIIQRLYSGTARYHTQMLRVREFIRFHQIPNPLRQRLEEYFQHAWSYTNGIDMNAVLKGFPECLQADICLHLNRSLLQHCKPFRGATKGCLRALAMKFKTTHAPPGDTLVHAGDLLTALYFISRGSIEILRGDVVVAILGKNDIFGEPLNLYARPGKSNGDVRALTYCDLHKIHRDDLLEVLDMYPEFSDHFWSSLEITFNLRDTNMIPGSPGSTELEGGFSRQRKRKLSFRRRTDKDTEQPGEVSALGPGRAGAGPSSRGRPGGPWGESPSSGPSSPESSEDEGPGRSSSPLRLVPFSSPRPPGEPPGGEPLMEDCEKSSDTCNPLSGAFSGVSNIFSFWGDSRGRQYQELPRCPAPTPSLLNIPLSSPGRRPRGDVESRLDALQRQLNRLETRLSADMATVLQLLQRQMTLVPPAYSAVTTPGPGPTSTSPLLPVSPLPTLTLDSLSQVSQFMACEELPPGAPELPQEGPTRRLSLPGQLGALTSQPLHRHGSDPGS
compound,measurement,setting,value
N[C@H]1C=C(C(=O)O)CC1=C(F)F [(S)-3-amino-4-(difluoromethylenyl)cyclopent-1-ene-1-carboxylic acid],CLint scaled,[1],8.97 mL/min/kg
same,genotoxicity in the Ames assay,[2],not genotoxic
same,CLint scaled,[3],13.1 mL/min/kg
same,"well tolerated dose, dogs","[4]; 10-day dosing, male and female dogs",up to 1.0 mg/kg
same,human dose converted from tolerated dog dose,"[4]; from 1 mg/kg dog, Reagan-Shaw conversion",1.54 mg/kg
same,human dose converted from tolerated rat dose,"[5]; from 1 mg/kg/day rat (so in the source), Reagan-Shaw conversion",0.48 mg/kg/day
same,well tolerated dose for all assessed ocular endpoints,"[5]; rats, 45 days, fundoscopy, ERG, OCT and histological assessments, initial results",up to 3 mg/kg/day
same,genetic toxicity,[6],No evidence of genetic toxicity
same,hERG channel activity,[7],No evidence of genetic toxicity or hERG channel activity
same,half-life,[8]; read-out: elimination half-life (t½),75 to 90 min
same,Tmax,[8]; read-out: time of maximum concentration (Tmax),15 to 30 min
same,"well tolerated dose, female rats","[9]; 10-day dosing, female rats",≤ 10 mg/kg
same,"well tolerated dose, male rats","[9]; 10-day dosing, male rats",up to 15 mg/kg
same,human dose converted from tolerated rat dose,[9]; from 10 mg/kg rat,1.62 mg/kg
same,human dose converted from tolerated rat dose,[9]; from 15 mg/kg rat,2.4 mg/kg
same,exposure (AUC basis) in dogs compared with rats,[10]; equivalent oral doses,higher exposure
same,half-life,"[10]; in vivo, dog, oral administration, read-out: elimination half-life (t½)",75 to 90 min
same,Tmax,"[10]; in vivo, dog, oral administration, read-out: time of maximum concentration (Tmax)",15 to 30 min
same,fraction unbound,[11],0.8 to 0.96
same,fraction unbound,[12],0.8 to 0.96
same,tolerability,[13]; 1 mg/kg/d by mouth for 45 days,well tolerated
same,human dose converted from tolerated mouse dose,"[13]; from 1 mg/kg/day mouse, Reagan-Shaw conversion",0.08 mg/kg/day
same,NOAEL,"[14]; from 6 mg/kg mouse, Reagan-Shaw conversion, read-out: human dose converted from mouse NOAEL",0.49 mg/kg
same,NOAEL,"[14]; mouse, adult mice, by mouth, behavioral neurotoxicity, read-out: acute no-observed adverse-effect level (NOAEL)",6 mg/kg
same,fraction unbound,[15],0.8 to 0.96
same,CLint scaled,[16],24.3 mL/min/kg
"C=CC(N)CCC(=O)O (stereo not shown) [vigabatrin, reference compound]",retinal B-wave amplitudes,"[13]; mouse, in vivo",reductions in retinal B-wave amplitudes
same,weight,"[13]; mouse, in vivo",marked reduction in weight
